Experimental data from PMC3158555, “Cofactor-mediated conformational control in the bifunctional kinase/RNase Ire1” (BMC Biology, 2011).

The compounds below were run against T1, Ire1KR32 (cytosolic kinase/RNase portion of Ire1) (Saccharomyces cerevisiae, UniProt P32361) (assay: inhibition of ADP-stimulated RNase cleavage of […]-RNA hairpin). Details: competition with 0.2 mM ADP, 3 µM Ire1KR32, 2 mM Mg2+, pH 7.4, 30 °C; kinase ATP pocket; paper prints mmol for mM.
T1 construct: cytoplasmic kinase + RNase domains with N-terminal 32-aa extension from the linker to the transmembrane segment; GST fusion (pGEX-6P-2) in E. coli, GST cleaved by PreScission; autophosphorylated (~20 phosphates); homo-oligomerizes
T1 sequence (P32361 641-1115): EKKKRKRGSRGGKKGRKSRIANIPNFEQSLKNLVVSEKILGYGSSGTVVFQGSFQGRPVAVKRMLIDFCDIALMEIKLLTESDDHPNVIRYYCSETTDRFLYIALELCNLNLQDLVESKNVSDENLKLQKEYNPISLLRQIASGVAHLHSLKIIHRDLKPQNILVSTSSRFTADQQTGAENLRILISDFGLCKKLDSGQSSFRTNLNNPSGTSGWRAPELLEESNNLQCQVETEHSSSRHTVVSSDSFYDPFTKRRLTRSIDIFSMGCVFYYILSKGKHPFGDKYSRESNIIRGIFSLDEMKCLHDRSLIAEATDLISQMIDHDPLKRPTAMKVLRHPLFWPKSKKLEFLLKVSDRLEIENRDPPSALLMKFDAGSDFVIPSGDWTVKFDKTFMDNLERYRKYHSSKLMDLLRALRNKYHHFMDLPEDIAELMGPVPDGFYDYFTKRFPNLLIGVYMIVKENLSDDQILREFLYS
Assay type: biochemical

Q: Nc1ncnc2c1ncn2[C@@H]1O[C@H](COP(=O)(O)OP(=O)(O)S)[C@@H](O)[C@H]1O (some centres unmarked) [ADPβS] was tested. Which Ki did it give?
A: 0.2 ± 0.07 mM

Q: Nc1ncnc2c1ncn2[C@@H]1O[C@H](COP(=O)(O)OP(=O)(O)OP(=O)(O)O)[C@@H](O)[C@H]1O [ATP] was tested. Which Ki did it give?
A: 0.1 ± 0.04 mM

Each compound was assayed against T1, Ire1KR32 (cytosolic kinase/RNase portion of Ire1) (assay: RNase activation, hyperbolic fit of kobs versus cofactor ([…]P-RNA hairpin)). Details: 3 µM Ire1KR32, 2 mM Mg2+, pH 7.4, 30 °C; allosteric activator in kinase ATP pocket.
Assay type: biochemical

Q: For Nc1ncnc2c1ncn2[C@@H]1O[C@H](COP(=O)(O)OP(=O)(O)O)[C@@H](O)[C@H]1O [ADP], which “Kcof (apparent cofactor binding constant)” value (shortened to “Kcof”) is on record?
A: ADP bound with an apparent affinity similar to that of ATP

Q: Which “Kcof” value does the source give for Nc1ncnc2c1ncn2[C@@H]1O[C@H](COP(=O)(O)O)[C@@H](O)[C@H]1O [AMP] here?
A: the apparent affinity for AMP was tenfold lower than that observed for ATP

Q: With c1cc(Nc2cc(C3CC3)[nH]n2)nc(Nc2ccc3[nH]cnc3c2)n1 [APY29] as the compound, how does the “Kcof” value read?
A: APY24 and APY29 activated Ire1 as well as or better than ADP

Q: For Nc1ncnc2c1ncn2[C@@H]1O[C@H](COP(=O)(O)OP(=O)(O)OP(=O)(O)O)[C@@H](O)[C@H]1O [ATP], which “Kcof” value is on record?
A: the apparent affinity for AMP was tenfold lower than that observed for ATP

Q: For Nc1ncnc2c1ncn2[C@@H]1O[C@H](COP(=O)(O)OP(=O)(O)OP(O)(O)=S)[C@@H](O)[C@H]1O [ATPγS], which “Kcof” value is on record?
A: ATPγS bound to Ire1 slightly more weakly than ATP

Q: CCN(CC)CCNC(=O)c1c(C)[nH]c(/C=C2\C(=O)Nc3ccc(F)cc32)c1C [sunitinib] was tested. Which “Kcof” value did it give?
A: activated Ire1KR32 to a similar extent as AMP and ATP
